The values that follow come from patent US6620792B1, “Pharmaceutical compositions containing monosialoganglioside GM1 or derivative thereof suitable for the treatment of parkinson's disease” (Fidia S.p.A., priority 1992, dated 2003).

Marks after values point to notes of the source that are not given here.

Experiment [1] relates to MPTP-treated cynomolgus monkeys. Description: motor behaviour rating of MPTP-treated cynomolgus monkeys. The class given is in vivo. Particulars: GM1 15 mg/kg/day i.m.; p<0.05 vs saline solution. On the procedure: In vivo experiments with GM1 were carried out on 15 (male or female) squirrel monkeys and 4 cynomolgus monkeys.
The monkeys were administered MPTP saline solution after being anaesthesized i.m. with ketamine HCl 5 mg/kg, as follows:
0.35 mg/kg/dose, i.v. (cynomolgus monkeys)
MPTP was administered every third day until complete manifestation of parkinsonian motor symptomatology was obtained, i.e. akinesia, lack of responsiveness to stimulation, inability to climb, to feed autonomously, and to groom. Thirty points min. (as will be defined in the explanation of FIG. 1) had to be obtained during the 48-60 hours following the last MPTP administration; then animals in pairs were subdivided at random into two treatment groups, i.e. treatment with GM1 or with saline solution. […]
In particular, the following functions were recorded: overall activity, ability to climb, locomotion/gait, upper and lower limb movements, detailed motor ability, bradykinesia/akinesia, dyskinesia/dystonia, carriage, tremor, balance, grooming ability, sudden immobility during movements, and ability to feed. […]
FIGS. 1 and 2 are now being considered in detail. […] Columns represent the average points (±S.D.); normal point is 0, MPTP points are the points recorded after the last MPTP injection but prior to the administration of associated GM1-saline solution. […]

Experiment [2] deals with MPTP-treated squirrel monkeys. Description: post-mortem striatal dopamine and metabolite levels by HPLC, squirrel monkeys. The class given is in vivo. Particulars: MPTP/GM1, average (S.D.). On the procedure:
Post-mortem neurochemical examinations of striatal tissue were carried out for the determination of dopamine (DA) and relevant metabolites, e.g. homovanillic acid (HVA), and […] (DOPAC). DA and relevant metabolites striatal levels were quantified by electrochemical […] high pressure liquid chromatography (HPLC) (Schneider J. S., Brain Res., 24, 534, 1990).

The subject of experiment [3] is mesencephalic dopaminergic neurons. Description: TOPA neurotoxicity in mesencephalic dopaminergic neuron cultures, TH immunofluorescence. The class given is cell-based, rat. Particulars: for TH+ cells (% control): counted 24 h later, mean ± S.E.M. The procedure: Mesencephalic neuron cultures were prepared according to Dal Toso et al. (Dal Toso et al.: “Development and survival of neurons in dissociated fetal mesencephalic serum-free cell cultures: I. Effects of cell density and of an adult mammalian striatal-derived neuronotrophic factor (SDNF)”, J. Neurosci., 8 (3) 733-745, 1988) from the mesencephalic tegmentum of 14.5-15 days' rat embryos.
Neurons (0.75×10^6) were plated on a poly-L-ornithine substrate in 12-well (25 mm dia. each) clusters.
Cultures were used between the fourth and the sixth day without changing the medium. […]
(§1) 2-hour pretreatment before acute incubation with TOPA;
(§2) cotreatment only with LIGA 20 before acute incubation with TOPA;
(§3) pretreatment with/without cotreatment before (100 μM for 2 h) and/or during (100 μM for 24 h) prolonged incubation with TOPA. TOPA cytotoxicity was determined by evaluating cellular survival, and more precisely:
TH immunofluorescence (specific for tyrosine hydroxylase) in mesencephalic dopaminergic neurons, as described by Berger et al. (Berger B. et al.: “Long-term development of mesencephalic dopaminergic neurons of mouse embryos in dissociated primary cultures: morphological and histochemical characteristics”, Neurosci., 7, 193-205, 1982);
(§4) Cytotoxicity is expressed as per cent cellular survival.
The results of the two tests (in triplicate) were analysed statistically according to Duncan's test.

Another experiment concerns cerebellar granule cells. Description: TOPA neurotoxicity in cerebellar granule cell cultures, MTT assay. Particulars: for Neuronal survival (%): control = 100%. The class given is cell-based. On the procedure: Granular cell cultures were obtained from 8-day rat cerebella and cultured (3×10^6 cells) on plates coated with poly-L-lysine substrate according to Skaper et al. (Skaper S. D. et al.: “Culture and use of primary and clonal neural cells”, Methods in Neurosciences, Ed. by P. M. Conn, Vol. 2, pp. 17-33, Academic Press, Orlando, 1990).
Twenty-four hours later, cytosine arabinoside (10 μM) was added to inhibit non-neuronal proliferation. Cerebellar granule cells were used 10-12 days later without changing the medium.
Cells were incubated with TOPA either for 40 minutes (100 μM acute exposure) or for 24 h (10 μM prolonged exposure).
Treatment with GM1, AGF2, AGF4 (100 μM) and LIGA 20 (1-30 μm) was carried out as follows:
as §1, §2, §3
MTT colorimetric assay of cerebellar neurons, as described by Mosmann (Mosmann T.: “Rapid colorimetric assay for cellular growth and survival: application to proliferation and cytotoxicity assays”, J. Immunol. Meth., 65, 55-63, 1983).
as §4
The results of the two tests (in triplicate) were analysed statistically according to Duncan's test. A brief description of same is reported below:
In FIG. 3 the dose-dependent protective effect of LIGA20 against TOPA-induced death of cultured cerebellar granule cells is represented. Cells were exposed concurrently to 100 μM TOPA and 1-30 μM LIGA20 or 200 μM GM1 in Locke's solution for 45 minutes (24° C.), washed and returned to their original medium. Survival was assessed 24 h later by the MTT method. Means±S.E.M. (n=9, 3 experiments). TOPA ( ), LIGA 20 ( ), GM1 ( ).
In vitro granule cells at the 11th day were incubated as indicated above. In the 40-minute exposure to TOPA, GM1 (100 μM) was used in 2-h pretreatment only. In the […] exposure to TOPA, GM1 (100 μM) was used either in 2-h pretreatment only or in 2-h pretreatment and in cotreatment with TOPA. The values are expressed with reference to the corresponding control cultures (=100%) and are an average (±S.D.) of two determinations, each being carried out in triplicate.
On the technique in general: Formazan colour is commonly taken as a measure of viable cells.

Consider monosialoganglioside [GM1], for which, in experiment [1], the “motor behaviour at the investigation end” value is given as “almost normal behaviour”. The DA striatal level in experiment [2] (Dorsolateral caudatum) was 8.6(1.2)* ng/mg protein; in experiment [2] (Dorsolateral putamen) it was 4.2(0.8)* ng/mg protein; in experiment [2] (Ventromedial caudatum) it was 37.4(4.2)* ng/mg protein; in experiment [2] (Ventromedial putamen), 21.9(6.1)* ng/mg protein. Besides, the DOPAC striatal level in experiment [2] (Dorsolateral caudatum) is 3.3(0.9)* ng/mg protein; in experiment [2] (Dorsolateral putamen) it was 1.3(0.2)* ng/mg protein; in experiment [2] (Ventromedial caudatum), 12.7(3.6)* ng/mg protein; in experiment [2] (Ventromedial putamen), 5.9(1.6)* ng/mg protein. Further, the HVA striatal level in experiment [2] (Dorsolateral caudatum) is 46.2(6.5)* ng/mg protein; in experiment [2] (Dorsolateral putamen), 45.9(6.9)* ng/mg protein; in experiment [2] (Ventromedial caudatum), 56.6(11.9)* ng/mg protein; in experiment [2] (Ventromedial putamen), 87.5(17.3)* ng/mg protein. Moreover, the “number of neurons which survived the TOPA-induced toxic insult” value in experiment [3] (10 μM GM1 with 1 ng/ml BDNF, compared with saturation concentration (50 ng/ml) of BDNF alone) is listed as “not significantly different”. Also, the “No. of TH+ cells” value in experiment [3] (100 μM compound incubated with TOPA 10 μM for 24 h, average ± S.D., control 244 ± 20) is listed as 187 ± 10 (b). The “TH+ cells (% control)” value in experiment [3] (200 μM GM1 2 h pretreatment, washed, then 100 μM TOPA for 45 minutes) is reported as 79.1 ± 4.0 % control; in experiment [3] (200 μM GM1 cotreatment with 100 μM TOPA for 45 minutes, no drug 5.2 ± 1.1), 5.6 ± 0.7 % control. The “effect of association with BDNF in protecting against TOPA-induced neurotoxicity” value in experiment [3] (ganglioside 1-10 μM with BDNF 1 ng/ml) is on record as “synergic effect”. Also, the “neuroprotective activity alone against TOPA-induced neurotoxicity” value in experiment [3] (ganglioside alone at 1-10 μM) is on record as “no neuroprotective activity of their own”. Moreover, the “Neuronal survival (%)” value is on record as 75.4 ± 5.5 (b) % in the experiment on cerebellar granule cells (GM1 100 μM 2-h pretreatment and cotreatment, TOPA 10 μM 24-h exposure); 57.0 ± 6.5 (a) % with cerebellar granule cells (GM1 100 μM 2-h pretreatment only, TOPA 10 μM 24-h exposure); 72.4 ± 5.8 (a) % with cerebellar granule cells (GM1 100 μM 2-h pretreatment only, then TOPA 100 μM 40-minute exposure). The “protection against the acute toxicity of TOPA in cotreatment” value with cerebellar granule cells (GM1 up to 200 μM, cotreatment with 100 μM TOPA for 45 minutes (FIG. 3)) is “not active”.
